Assay results taken from patent US8207329B2, “Synthesis of chlorins and phorbines with enhanced red spectral features” (North Carolina State University, priority 2005, dated 2012).
Several values for one entry are separate records, joined by “and”; a condition that tells them apart may be missing. Equal entries are not always repeated. Where two headings read alike, the source gives them in different places.

What was measured:
[1] = Absorption spectra obtained in toluene at room temperature; format: physicochemical; conditions: for ΔνQy: redshift relative to the parent chlorin (ZnC or Zn—M^10); for Qy band / B/Qy band intensity ratio: toluene at room temperature; for Qy band: normalized at the B bands
From the text: (§1) Absorption Spectra. The spectral properties of interest in the chlorins include the position of the long-wavelength Qy transition, the intensity of the Qy transition, and the fluorescence quantum yield of the chlorin. The intensity of the Qy transition can be assessed by the measured molar absorption coefficient; however, comparisons of such values are somewhat unreliable given the experimental variability encountered upon handling small quantities of materials. A better comparison is achieved by examination of the ratio of the intensities of the B and Qy bands for a given compound (B/Qy ratio), which is determined simply by absorption spectroscopy without requiring determination of the molar absorption coefficient. For a wide variety of applications, bathochromic and hyperchromic shifts of the Qy band are desired (i.e., shifted to longer wavelength and intensified), thereby affording strong absorption in the deep-red region.
General. ^1H NMR (400 MHz) and ^13C NMR (75 MHz) spectra were collected at room temperature in CDCl3. Absorption spectra were obtained in toluene at room temperature. Chlorins were analyzed by laser desorption mass spectrometry (LD-MS) in the absence of a matrix. Fast atom bombardment mass spectrometry (FAB-MS) data are reported for the molecule ion or protonated molecule ion. Melting points are uncorrected. All commercially available materials were used as received. All palladium-coupling reactions were carried out using standard Schlenk-line techniques.
as §1, with “B. Absorption” for “Absorption”, “Spectroscopy.” for “Spectra.”, “increased” for “intensified), thereby affording strong absorption”, “intensity).” for “the deep-red region.”
General. ^1H NMR (400 MHz) and ^13C NMR (75 MHz) spectra were collected at room temperature in CDCl3 unless noted otherwise. Absorption spectra were obtained in toluene at room temperature. Chlorins were analyzed by laser desorption mass spectrometry (LD-MS) in the absence of a matrix. Metalation of free base chlorins was monitored by fluorescence spectroscopy. Melting points are uncorrected. All commercially available materials were used as received.

[2] = cited from earlier work; for Qy band / εQy: chlorophylls; for Qy band: FIG. 3, in diethyl ether at room temperature; for εQy: Strain and Svec (FIG. 3)
[3] = Stability on storage and handling; format: physicochemical; conditions: for powdered solid stored without decomposition: in the refrigerator; for decomposes almost completely in solution within: in solution (such as in ethyl acetate or chlorinated solvent) even at 0° C.
[4] = Fluorescence spectra and fluorescence quantum yields in toluene at room temperature; format: physicochemical
Procedure: Fluorescence Spectroscopy. The fluorescence spectra and fluorescence quantum yields reported herein were collected in toluene at room temperature. Measurements of fluorescence quantum yield (Φf) were carried out using chlorin Zn-11 (Φf=0.065) as a standard (Strachan, J.-P. et al., J. Org. Chem. 2000, 65, 3160-3172).

[5] = Table 1, in toluene at room temperature
[6] = Table 1, literature value, in diethyl ether
[7] = Table 3, zinc chlorins in toluene at room temperature
[8] = figure legends (FIG. 1, 2, 4, 5)
[9] = Table 3, Ref Jones et al., in diethyl ether

Cc1ccc(C2=c3ccc4[n]3[Zn][n]3c(cc(Br)c3C=C3CC(C)(C)C(=N3)C=4)C(c3c(C)cc(C)cc3C)=C3C=CC2=N3)cc1 [Zn-6, Zn(II)-13-Bromo-17,18-dihydro-10-mesityl-18,18-dimethyl-5-p-tolylporphyrin]
B/Qy intensity ratio [1, 5]: 4.0 | Log ε (M^−1cm^−1) (Qy band) [1, 5]: 4.65 M^−1cm^−1 | λmax (nm), B [1, 5]: 414 nm | λmax (nm), Qy [1, 5]: 616 nm

pheophytin a
B/Qy intensity ratio [2, 6]: 2.1 | Log ε (M^−1cm^−1) (Qy band) [2, 6]: 5.12 | λmax (nm), B [2, 6]: 408 nm | λmax (nm), Qy [2, 6]: 667 nm

CC(C)[Si](C#Cc1cc2[n]3c1C=C1CC(C)(C)C(=N1)C=c1cc(C#C[Si](C(C)C)(C(C)C)C(C)C)c([n]1[Zn]3)=CC1=NC(=C2)C=C1)(C(C)C)C(C)C [ZnC-E^3E^13]
ΔνQy ([1]; Table 3, toluene): 1080 cm⁻¹ | B/Qy ratio [1, 7]: 1.4 | λmax (nm), B [1, 7]: 421 nm | λmax (nm), Qy [1, 7]: 645 nm | Qy band ([1]; figure legends (FIG. 4, 5)): 645

C=Cc1cc2[n]3c1C=C1C=CC(=N1)C(c1c(C)cc(C)cc1C)=c1ccc([n]1[Zn]3)=CC1=NC(=C2)C(C)(C)C1 [ZnC-V^3M^10, Zn(II)-17,18-Dihydro-10-mesityl-18,18-dimethyl-3-vinylporphyrin]
ΔνQy ([1]; Table 3, toluene): 400 cm⁻¹ | B/Qy ratio [1, 7]: 3.3 | λmax (nm), B [1, 7]: 413 nm | λmax (nm), Qy [1, 7]: 621 nm

CC(=O)c1cc2[n]3c1C=C1CC(C)(C)C(=N1)C=c1cc(C#C[Si](C(C)C)(C(C)C)C(C)C)c([n]1[Zn]3)=CC1=NC(=C2c2c(C)cc(C)cc2C)C=C1 [ZnC-E^3M^10A^13, Zn(II)-13-Acetyl-3-[2-(triisopropylsilyl)ethynyl]-17,18-dihydro-10-mesityl-18,18-dimethylporphyrin]
ΔνQy ([1]; Table 3, toluene): 1160 cm⁻¹ | B/Qy ratio [1, 7]: 1.5 | λmax (nm), B [1, 7]: 428 nm | λmax (nm), Qy [1, 7]: 652 nm | Qy band ([1]; figure legend (FIG. 4)): 652 | B/Qy band intensity ratio ([1]; figure legends (FIG. 4, 5)): 1.5

CC(=O)c1cc2[n]3c1C=C1CC(C)(C)C(=N1)C=c1cc(C#C[Si](C(C)C)(C(C)C)C(C)C)c([n]1[Zn]3)=CC1=NC(=C2)C=C1 [ZnC-E^3A^13]
ΔνQy ([1]; Table 3, toluene): 1320 cm⁻¹ | B/Qy ratio [1, 7]: 1.2 | λmax (nm), B [1, 7]: 428 nm | λmax (nm), Qy [1, 7]: 655 nm | Qy band [1, 8]: 655 nm | B/Qy band intensity ratio ([1]; figure legends (FIG. 4, 5)): 1.2

CCCCB(CCCC)n1c(C(=O)c2ccc(C)cc2)ccc1C(c1ccc[nH]1)c1c(C)cc(C)cc1C (stereo not drawn) [Bu2B-3, 10-(Dibutylboryl)-5-mesityl-1-p-toluoyldipyrromethane]
stability (in words) [3]: decomposes partially at room temperature

CC(=O)c1cc2[n]3c1=CC1=NC(=Cc4ccc([n]4[Zn]3)C(c3ccc(C)cc3)=C3C=CC(=N3)C=2c2c(C)cc(C)cc2C)C(C)(C)C1 [Zn-8, Zn(II)-13-Acetyl-17,18-dihydro-10-mesityl-18,18-dimethyl-5-p-tolylporphyrin]
redshift of the Qy band ([1]; Example 1, versus benchmark chlorin lacking the 13-substituent (Zn-11 or 11), toluene): 27 nm | B/Qy intensity ratio [1, 5]: 2.9 | Log ε (M^−1cm^−1) (Qy band) [1, 5]: 4.75 M^−1cm^−1 | λmax (nm), B [1, 5]: 424 nm | λmax (nm), Qy [1, 5]: 635 nm | Qy band [1, 8]: 632 nm | strong / dominant Qy(0,0) fluorescence band [4]: around 641 nm | weak emission feature / broad weak band [4]: 670-720 nm | fluorescence quantum yield (Φf) ([4]; standard Zn-11 (Φf=0.065)): 0.24

Zn(II)-3-(2-(Triisopropylsilyl)ethynyl)-17,18-dihydro-10-mesityl-18,18-dimethylporphyrin [ZnC-E^3M^10]
ΔνQy ([1]; Table 3, toluene): 550 cm⁻¹ | B/Qy ratio [1, 7]: 2.3 | λmax (nm), B [1, 7]: 416 nm | λmax (nm), Qy [1, 7]: 627 nm

O=Cc1ccc(Cc2cc(Br)c(Br)[nH]2)[nH]1 [compound 14, 8,9-Dibromo-1-formyldipyrromethane]
powdered solid stored without decomposition [3]: 2-3 weeks

CC(=O)c1cc2[n]3c1C=C1CC(C)(C)C(=N1)C=c1ccc([n]1[Zn]3)=CC1=NC(=C2c2c(C)cc(C)cc2C)C=C1 [ZnC-M^10A^13, Zn(II)-13-Acetyl-17,18-dihydro-10-mesityl-18,18-dimethylporphyrin]
ΔνQy ([1]; Table 3, toluene): 680 cm⁻¹ | B/Qy ratio [1, 7]: 2.2 | λmax (nm), B [1, 7]: 418 nm | λmax (nm), Qy [1, 7]: 632 nm | Qy band ([1]; figure legends (FIG. 4, 5)): 632

Cc1cc(C)c(C(c2ccc(C=O)[nH]2)c2cc(Br)c(Br)[nH]2)c(C)c1 (stereo not drawn) [compound 16, 8,9-Dibromo-1-formyl-5-mesityldipyrromethane]
decomposes almost completely in solution within [3]: 18 to 20 h | powdered solid stored without decomposition [3]: 5 to 7 days

CC(=O)c1cc2[n-]c1cc1nc(cc3ccc([n-]3)c(-c3ccc(C)cc3)c3nc(c2-c2c(C)cc(C)cc2C)C=C3)C(C)(C)C1.[Cu+2] [Cu-8, Cu(II)-13-Acetyl-17,18-dihydro-10-mesityl-18,18-dimethyl-5-p-tolylporphyrin]
B/Qy intensity ratio [1, 5]: 3.1 | Log ε (M^−1cm^−1) (Qy band) [1, 5]: 4.69 M^−1cm^−1 | λmax (nm), B [1, 5]: 420 nm | λmax (nm), Qy [1, 5]: 631 nm

Cc1cc(C)c(C2=c3cc(C#C[Si](C(C)C)(C(C)C)C(C)C)c4[n]3[Zn][n]3c(ccc3C=C3N=C(C=4)CC3(C)C)C=C3C=CC2=N3)c(C)c1 [ZnC-M^10E^13, Zn(II)-13-[2-(Triisopropylsilyl)ethynyl]-17,18-dihydro-10-mesityl-18,18-dimethylporphyrin]
ΔνQy ([1]; Table 3, toluene): 530 cm⁻¹ | B/Qy ratio [1, 7]: 2.3 | λmax (nm), B [1, 7]: 412 nm | λmax (nm), Qy [1, 7]: 626 nm

C=Cc1c(C)c2cc3nc(c4c5[n-]c(cc6nc(cc1[n-]2)C(C)=C6CC)c(C)c5C(=O)[C@@H]4C(=O)OC)[C@@H](CCC(=O)OC/C=C(\C)CCC[C@H](C)CCC[C@H](C)CCCC(C)C)[C@@H]3C.[Mg+2] [chlorophyll a]
B/Qy intensity ratio [2, 6]: 1.3 | λmax (nm), B [2, 6]: 430 nm | λmax (nm), Qy [2, 6]: 662 nm | B band ([2]; chlorophyll a, text (FIG. 3)): 430 nm | Qy band [2]: 662 nm | εQy [2]: 86,300 M^−1cm^−1

C=Cc1c(C)c2cc3nc(c4c5[n-]c(cc6nc(cc1[n-]2)C(C=O)=C6CC)c(C)c5C(=O)[C@@H]4C(=O)OC)[C@@H](CCC(=O)OC/C=C(\C)CCC[C@H](C)CCC[C@H](C)CCCC(C)C)[C@@H]3C.[Mg+2] [chlorophyll b]
Qy band [2]: 642 nm and 644 nm | εQy [2]: 56,100 M^−1cm^−1

C=Cc1c(C)c2cc3nc(c4c5[n-]c(cc6nc(cc1[n-]2)C(C=O)=C6CC)c(C)c5C(=O)[C@@H]4C(=O)OC)[C@@H](CCC(=O)OC/C=C(\C)CCC[C@H](C)CCC[C@H](C)CCCC(C)C)[C@@H]3C.[Zn+2] [Zn-chlorophyll b]
B/Qy intensity ratio [2, 6]: 2.9 | λmax (nm), B [2, 6]: 446 nm | λmax (nm), Qy [2, 6]: 634 nm | B/Qy ratio [2, 9]: 2.9 | λmax (nm), B [2, 9]: 446 nm | λmax (nm), Qy [2, 9]: 634 nm

CC(=O)CC(C)(C)C(Cc1ccc[nH]1)[N+](=O)[O-] (stereo not drawn) [compound 19, 4,4-Dimethyl-5-nitro-6-(1H-pyrrol-2-yl)hexan-2-one]
colour change from yellow to black indicating partial decomposition ([3]; neat or in solution, at room temperature): 1 to 2 days

Cc1ccc(C(=O)c2ccc(C(c3cc(Br)c(Br)[nH]3)c3c(C)cc(C)cc3C)[nH]2)cc1 (stereo not drawn) [compound 4, 8,9-Dibromo-5-mesityl-1-(4-methylbenzoyl)dipyrromethane]
decomposes almost completely in solution within [3]: 8 to 10 h | decomposed almost completely in solution within ([3]; purified compound in solution even at 0° C.): 8 to 10 h | powdered solid stable on storage without decomposition ([3]; storage at −10° C.): 1 to 2 days

Cc1cc(C)c(C2=c3cc(C#C[Si](C(C)C)(C(C)C)C(C)C)c4[n]3[Zn][n]3c(cc(C#C[Si](C(C)C)(C(C)C)C(C)C)c3C=C3C=CC2=N3)C=C2N=C(C=4)CC2(C)C)c(C)c1 [ZnC-E^3M^10E^13, Zn(II)-3,13-Bis[2-(triisopropylsilyl)ethynyl]-17,18-dihydro-10-mesityl-18,18-dimethylporphyrin]
ΔνQy ([1]; Table 3, toluene): 1020 cm⁻¹ | B/Qy ratio [1, 7]: 1.6 | λmax (nm), Qy [1, 7]: 646 nm | Qy band [1, 8]: 646 nm
